The results in this text go back to patent US7312322B1, “Genetic sequences encoding steroid and juvenile hormone receptor polypeptides and insecticidal modalities therefor” (priority 1998, dated 2007).

Data set [1] addresses T1, linker and ligand-binding regions of the D. melanogaster EcR polypeptide and partner protein (USP polypeptide) (Drosophila melanogaster, UniProt P34021).
T1 construct: made in house; host or cells: recombinant baculovirus in insect Sf21 and Sf9 cells
T1 sequence (P34021 419-654 limits assumed): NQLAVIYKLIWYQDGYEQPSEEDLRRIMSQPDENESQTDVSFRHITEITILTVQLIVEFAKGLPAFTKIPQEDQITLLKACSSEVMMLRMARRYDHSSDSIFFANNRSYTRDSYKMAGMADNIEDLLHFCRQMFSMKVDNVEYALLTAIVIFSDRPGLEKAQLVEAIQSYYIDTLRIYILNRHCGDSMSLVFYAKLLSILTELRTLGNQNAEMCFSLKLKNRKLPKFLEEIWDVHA
T1 sequence (P20153 239-498 partner limits assumed): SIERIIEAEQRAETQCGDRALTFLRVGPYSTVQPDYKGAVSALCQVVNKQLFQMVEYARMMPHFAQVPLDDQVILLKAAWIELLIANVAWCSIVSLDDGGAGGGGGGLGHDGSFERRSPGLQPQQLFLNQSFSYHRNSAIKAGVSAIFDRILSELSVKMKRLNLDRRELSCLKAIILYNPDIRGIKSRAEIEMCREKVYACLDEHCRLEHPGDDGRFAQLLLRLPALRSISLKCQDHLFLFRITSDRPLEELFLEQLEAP
Briefly: [3H]ponasterone A binding assay in cells infected by recombinant baculovirus (modified method of Yund et al). Conditions: compared to the naturally-occurring ecdysone holoreceptor in L. cuprina embryos; no specific binding with control virus. An excerpt: The segment of pDmEcR.USP.DUAL which encodes the tagged linker and ligand-binding regions of the EcR polypeptide and partner protein (USP polypeptide) sequences, placed operably under the control of polyhedrin and p10 promoters, respectively, was recombined into a baculovirus genome, by employing the Tn7 transposition system (Luckow et al, (1993). The polypeptide products were then co-expressed in insect Sf21 and Sf9 cells, where they associated into a functional complex.
The correctly-folded and associated complex formed by the truncated Ecr polypeptide and truncated EcR partner protein (USP polypeptide), is used for X-ray and NMR structural analysis and for high-throughput screens.

For data set [2], the target named is T2, EcR polypeptide of the L. cuprina ecdysone receptor (Lucilia cuprina, UniProt O18531).
T2 construct: Plasmid pF3 thus contains the complete open reading frame of the cDNA encoding the EcR polypeptide of the L. cuprina ecdysone receptor; expressed in transfected cells; host or cells: CHO cells
T2 sequence (O18531 1-757): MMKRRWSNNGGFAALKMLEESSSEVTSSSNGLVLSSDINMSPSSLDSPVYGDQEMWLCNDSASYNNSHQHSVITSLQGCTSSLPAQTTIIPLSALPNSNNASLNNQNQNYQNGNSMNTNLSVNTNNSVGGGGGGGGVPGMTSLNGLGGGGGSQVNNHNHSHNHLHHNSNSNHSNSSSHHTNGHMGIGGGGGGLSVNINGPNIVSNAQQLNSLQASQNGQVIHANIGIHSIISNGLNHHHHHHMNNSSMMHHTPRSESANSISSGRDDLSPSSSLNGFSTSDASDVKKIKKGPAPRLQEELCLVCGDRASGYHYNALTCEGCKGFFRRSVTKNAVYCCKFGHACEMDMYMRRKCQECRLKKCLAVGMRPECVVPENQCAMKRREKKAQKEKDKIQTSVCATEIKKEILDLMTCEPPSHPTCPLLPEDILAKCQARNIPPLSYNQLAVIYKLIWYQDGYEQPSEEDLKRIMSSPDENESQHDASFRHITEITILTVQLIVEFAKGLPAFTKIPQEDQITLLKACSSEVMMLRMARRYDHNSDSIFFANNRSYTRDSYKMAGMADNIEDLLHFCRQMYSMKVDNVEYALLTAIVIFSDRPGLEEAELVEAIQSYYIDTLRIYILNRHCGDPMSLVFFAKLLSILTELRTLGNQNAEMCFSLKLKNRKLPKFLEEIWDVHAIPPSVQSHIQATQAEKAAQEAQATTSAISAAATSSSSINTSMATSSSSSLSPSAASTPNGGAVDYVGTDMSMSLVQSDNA
Briefly: CHO cell co-transfection CAT reporter assay, pSGLcEcR. It is filed as cell-based. Particulars: CHO cells, 48 h after transfection, average of three experiments (FIG. 1). The protocol:
CHO cells were co-transfected with a mixture comprising the following DNAs, lysed and assayed for CAT and β-galactosidase enzyme activity, as described in the preceding Examples: • (1) one of the expression plasmids designated pSGDmEcR, or pSGLcEcR, or the parental expression plasmid pSG5 as a negative control, at a concentration of 1 μg/ml; and • (2) the CAT reporter plasmid p(EcRE)5CAT at a concentration of 1 μg/ml; and • (3) an independent LacZ reporter plasmid, pPGKLacZ, at a concentration of 1 μg/ml, included as a control to monitor transfection efficiency.
CAT reporter gene expression was induced with 10 μM or 50 μM Muristerone A. In control samples, cells received only the carrier ethanol in place of Muristerone A.
ELISA was used to quantify the synthesis of CAT and β-galactosidase enzymes, in extracts of cells forty eight hours after transfection. Account was taken of the variation between experiments, by normalizing the level of CAT enzyme to the level of β-galactosidase enzyme present in the same extract. Fold induction represents the normalized values for CAT gene expression in cells transfected with pSGDmEcR, pSGLcEcR or pSG5 in the presence of hormone divided by the normalized values for CAT gene expression in cells transfected with the same plasmid but in the absence of hormone. […]

In data set [3] the target is T3, chimeric EcR polypeptide encoded by plasmid pSGLD (UniProt O18531+P34021, A395P/D402E/DEL360-378/E403D/F552Y/I397C/I665A/INS379CATEI/K578E/L663I/M356I/Q393S/Q448S/Q580E/R443K/S415P/S515N/S605P/T357Q/T417S/T456H/V458A/Y611F).
T3 construct: expressed in transfected cells
T3 sequence (P34021+O18531 fused with the stated changes): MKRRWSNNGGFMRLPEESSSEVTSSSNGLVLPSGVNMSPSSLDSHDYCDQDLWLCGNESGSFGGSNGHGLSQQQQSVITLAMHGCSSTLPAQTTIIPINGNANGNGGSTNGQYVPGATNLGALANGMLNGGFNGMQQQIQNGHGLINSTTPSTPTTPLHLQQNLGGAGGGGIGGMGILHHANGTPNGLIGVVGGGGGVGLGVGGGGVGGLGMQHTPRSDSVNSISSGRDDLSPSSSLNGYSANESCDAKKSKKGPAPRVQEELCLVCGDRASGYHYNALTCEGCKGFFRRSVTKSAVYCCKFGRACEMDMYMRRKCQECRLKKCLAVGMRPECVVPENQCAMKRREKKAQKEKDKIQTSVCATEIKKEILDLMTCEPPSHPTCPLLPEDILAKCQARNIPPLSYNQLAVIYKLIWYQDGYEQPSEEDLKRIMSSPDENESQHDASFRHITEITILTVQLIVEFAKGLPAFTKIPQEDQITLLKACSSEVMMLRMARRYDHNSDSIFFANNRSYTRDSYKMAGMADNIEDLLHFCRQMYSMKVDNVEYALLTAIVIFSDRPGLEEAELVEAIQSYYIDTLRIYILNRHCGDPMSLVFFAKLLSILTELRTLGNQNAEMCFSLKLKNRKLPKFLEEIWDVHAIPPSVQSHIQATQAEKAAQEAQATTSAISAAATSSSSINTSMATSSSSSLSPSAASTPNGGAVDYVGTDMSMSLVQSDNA
Briefly: CHO cell co-transfection CAT reporter assay, chimeric EcR plasmid pSGLD. It is filed as cell-based, D. melanogaster / L. cuprina. Particulars: 10 μM and 50 μM Muristerone A, comparable to D. melanogaster base EcR polypeptide (FIG. 2). The protocol: (§1) FIG. 2 is a copy of a graphical representation showing the activity of plasmid pSGLD and pSGDL, containing chimeric EcR polypeptide subunits of insect ecdysone receptors, produced as described in the Examples. Cotransfection assays were performed as described in the Examples using plasmids pSGLD and pSGDL and the CAT reporter plasmid p(EcRE)7-CAT (1 ug/ml) and an independent reporter, pPGKLacZ at 1 μg/ml each. CAT/b-Gal (%) refers to CAT reporter activity expressed as a percentage relative to β-galactosidase activity produced by the internal control reporter, pPGKLacZ.
(§2) In one exemplification of this embodiment, plasmids pSGLD and pSGDL are produced comprising coding regions derived from the EcR polypeptides of the D. melanogaster and L. cuprina ecdysone receptors. In plasmid pSGLD, the 5′-end of the open reading frame of the D. melanogaster sequence, encoding the N-terminal portion of the EcR polypeptide of the D. melanogaster ecdysone receptor to the end of the DNA-binding domain of said polypeptide, is fused to the 3′-end of the open reading frame of the L. cuprina sequence, encoding the C-terminal portion of the EcR polypeptide of the L. cuprina ecdysone receptor, from the D domain and hormone-binding domain to the carboxyl terminus. […]
In general terms: A reporter such as luciferase makes a cellular process visible.

The target of data set [4] is T4, chimeric EcR polypeptide encoded by plasmid pSGDL (Drosophila melanogaster, UniProt P34021, A242T/A248V/C246S/D219E/E244D/N243S/R304H/S245A/S251I/S295N/V221A/V259L/Y240F).
T4 construct: expressed in transfected cells
T4 sequence (P34021 other isoform, or with tags, fused parts or gaps with the stated changes): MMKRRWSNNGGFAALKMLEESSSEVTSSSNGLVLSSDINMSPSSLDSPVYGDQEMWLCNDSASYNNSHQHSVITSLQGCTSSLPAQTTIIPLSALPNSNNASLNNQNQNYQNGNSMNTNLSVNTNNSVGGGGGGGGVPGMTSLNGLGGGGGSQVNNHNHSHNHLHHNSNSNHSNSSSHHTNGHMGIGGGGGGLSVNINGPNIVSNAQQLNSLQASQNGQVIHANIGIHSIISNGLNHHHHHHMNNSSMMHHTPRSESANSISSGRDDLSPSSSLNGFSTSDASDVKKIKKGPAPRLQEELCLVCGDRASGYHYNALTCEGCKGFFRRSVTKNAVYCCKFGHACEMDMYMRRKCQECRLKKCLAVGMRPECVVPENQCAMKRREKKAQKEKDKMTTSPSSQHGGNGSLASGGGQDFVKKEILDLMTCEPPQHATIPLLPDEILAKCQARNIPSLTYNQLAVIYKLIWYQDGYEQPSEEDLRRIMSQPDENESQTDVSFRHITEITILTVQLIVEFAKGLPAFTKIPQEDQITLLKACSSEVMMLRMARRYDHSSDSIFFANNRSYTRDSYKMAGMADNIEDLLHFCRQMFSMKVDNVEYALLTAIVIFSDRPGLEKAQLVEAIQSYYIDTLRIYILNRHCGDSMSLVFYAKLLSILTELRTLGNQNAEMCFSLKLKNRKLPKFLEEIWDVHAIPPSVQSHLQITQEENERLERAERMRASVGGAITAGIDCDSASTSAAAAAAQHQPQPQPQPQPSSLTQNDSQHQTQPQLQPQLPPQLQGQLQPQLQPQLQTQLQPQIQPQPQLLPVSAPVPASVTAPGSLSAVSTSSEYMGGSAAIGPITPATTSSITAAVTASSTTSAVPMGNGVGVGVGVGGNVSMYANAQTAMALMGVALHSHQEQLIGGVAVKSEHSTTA
Put plainly: CHO cell co-transfection CAT reporter assay, chimeric EcR plasmid pSGDL. It counts as cell-based, L. cuprina / D. melanogaster. Particulars: 10 μM and 50 μM Muristerone A, comparable to D. melanogaster base EcR polypeptide (FIG. 2). The protocol: as §1, §2

As for [^3H]ponasterone A, the “binding of labelled ligand in cells infected by the recombinant baculovirus” value in data set [1] was “highly-significant increase in the binding”.

For `CC(C)CC[C@@H](O)[C@](C)(O)[C@H]1CC[C@@]2(O)C3=CC(=O)[C@]4(O)C[C@@H](O)[C@@H](O)C[C@]4(C)[C@H]3[C@H](O)C[C@]12C` [Muristerone A], the “CAT induction (fold induction)” value in data set [2] (50 μM steroid) is reported as “about 30 fold”; in data set [2] (10 μm steroid), approximately 15 fold. Further, the “bioactivity in the CAT assay” value in data set [3] and in data set [4] was “Significant bioactivity” throughout.
